Source: patent publication US6784201B2, “Benzothiepines having activity as inhibitors of ileal bile acid transport and taurocholate uptake” (G.D. Searle & Company, priority 1994, dated 2004)
Read-outs that look alike come from different tables or passages of the source.

Molecular target: T1, human IBAT (Homo sapiens, UniProt Q12908)
T1 construct: expressed in transfected cells; host or cells: Baby hamster kidney (BHK) cells, clone H14
T1 sequence (Q12908 1-348): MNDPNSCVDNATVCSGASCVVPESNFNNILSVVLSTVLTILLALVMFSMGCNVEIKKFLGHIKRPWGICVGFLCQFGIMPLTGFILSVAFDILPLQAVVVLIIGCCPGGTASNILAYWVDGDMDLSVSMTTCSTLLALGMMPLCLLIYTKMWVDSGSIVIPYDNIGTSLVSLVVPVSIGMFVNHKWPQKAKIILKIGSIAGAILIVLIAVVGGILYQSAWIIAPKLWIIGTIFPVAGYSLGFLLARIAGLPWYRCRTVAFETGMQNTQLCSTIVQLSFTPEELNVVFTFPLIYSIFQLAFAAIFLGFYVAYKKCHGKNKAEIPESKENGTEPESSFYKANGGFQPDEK
Assay: In vitro assay of IBAT-mediated uptake of [14C]-taurocholate (TC) in H14 cells
Format: cell-based
Summary of the method: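 BHK cells stably expressing human IBAT (H14) were incubated 2 h at 37° C with compound and 3 μM final [14C]-taurocholate in DMEM (4.5 g/L glucose) plus 0.2% fatty acid-free BSA. After cold PBS washes, cell-associated radioactivity was measured by scintillation counting.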

| SMILES | IC50 (read-out: Human TC IC50) [nM] | IC50 (Human TC IC50) [nM] |
| --- | --- | --- |
| CCCCC1(CCCC)CS(=O)(=O)c2ccc(N(C)C)cc2C(c2ccc(OCc3ccccn3)c(F)c2)C1O (centres unmarked) [Example 1109] | 8 | – |
| CCCCC1(CCCC)CS(=O)(=O)c2ccc(N(C)C)cc2C(c2cccc(OCCOCCOCC[n+]3ccc(N4CCCC4)cc3)c2)C1O (centres unmarked) [Example 1110] | 8 | – |
| CCCCC1(CCCC)CS(=O)(=O)c2ccc(N(C)C)cc2C(c2ccncc2)C1O (centres unmarked) [Example 1112] | 8 | – |
| CCCCC1(CCCC)CS(=O)(=O)c2ccc(N(C)C)cc2C(c2ccc(OCc3ccncc3)c(F)c2)C1O (centres unmarked) [Example 1113] | 9 | – |
| CCCCC1(CCCC)CS(=O)(=O)c2ccc(NC)cc2C(c2cccc(OC)c2)C1O (centres unmarked) [Example 1114] | 9 | – |
| CCCCC1(CC)CS(=O)(=O)c2ccc(N(C)C)cc2C(c2cccc(OCCOCCOCC[N+](C)(C)C)c2)C1O (centres unmarked) [Example 1117] | 10 | – |
| CCCCC1(CC)CS(=O)(=O)c2ccc(N(C)C)cc2C(c2ccc(O)c(F)c2)C1O (centres unmarked) [Example 1118] | 10 | – |
| CCCCC1(CCCC)CS(=O)(=O)c2ccc(N(C)C)cc2C(c2cccc(OCCOCCOCC[n+]3ccc(-c4ccccc4)cc3)c2)C1O (centres unmarked) [Example 1119] | 10 | – |
| CCCCC1(CCCC)CS(=O)(=O)c2ccc(N(C)C)cc2C(c2ccc(OCCOCC[N+](CC)(CC)CCN(CC)CC)c(F)c2)C1O (centres unmarked) [Example 1122] | 11 | – |
| CCCCC1(CCCC)CS(=O)(=O)c2ccc(N(C)C)cc2C(c2cccc(OCCOCCOCC[n+]3ccc(CCC)cc3)c2)C1O (centres unmarked) [Example 1127] | 13 | – |
| CCCCC1(CCCC)CS(=O)(=O)c2ccc(N(C)C)cc2C(c2ccc(O)c(F)c2)C1O (centres unmarked) [Example 1128] | 17 | – |
| CCCCC1(CCCC)CS(=O)(=O)c2ccc(N(C)C)cc2C(c2ccc(F)c(Cl)c2)C1O (centres unmarked) [Example 1130] | 18 | – |
| CCCCC1(CC)CS(=O)(=O)c2ccc(N(C)C)cc2C(c2ccc(OC)cc2)C1O (centres unmarked) [Example 1131] | 20 | – |
| CCCCC1(CCCC)CS(=O)(=O)c2ccc(N(C)C)cc2C(c2cccc(OCCOCCOCC[n+]3ccc4c(c3)CCCC4)c2)C1O (centres unmarked) [Example 1132] | 20 | – |
| CCCCC1(CCCC)CS(=O)(=O)c2ccc(N(C)C)cc2C(c2ccc(CC#N)cc2)C1O (centres unmarked) [Example 1133] | 20 | – |
| CCCCC1(CCCC)CS(=O)(=O)c2ccc(N(C)C)cc2C(c2cccc(OCCOCCOCCI)c2)C1O (centres unmarked) [Example 1136] | 21 | – |
| CCCCC1(CCCC)CS(=O)(=O)c2ccc(N(C)CC)cc2C(c2ccc(F)cc2)C1O (centres unmarked) [Example 1141] | 23 | – |
| CCCCC1(CCCC)CS(=O)(=O)c2ccc(N(C)C)cc2C(c2ccc(OCCOCCSCCN(CC)CC)c(F)c2)C1O (centres unmarked) [Example 1142] | 24 | – |
| CCCCC1(CCCC)CS(=O)(=O)c2ccc(N(C)C)cc2C(c2ccc(OCCCCCCCCCC[N+](C)(C)C)cc2)C1O (centres unmarked) [Example 1146] | 29 | – |
| CCCCC1(CCCC)CS(=O)(=O)c2ccc(N(CC)CC)cc2C(c2cccc(OC)c2)C1O (centres unmarked) [Example 1147] | 29 | – |

| SMILES | IC50 (read-out: Human TC IC50) [nM] | IC50 (Human TC IC50) [nM] |
| --- | --- | --- |
| CCCCC1(CCCC)CS(=O)(=O)c2ccc([S+](C)C)cc2C(c2ccc(F)cc2)C1O (centres unmarked) [Example 1148] | 30 | – |
| CCCCC1(CCCC)CS(=O)(=O)c2ccc(NCC)cc2C(c2ccc(F)cc2)C1O (centres unmarked) [Example 1149] | 30 | – |
| CCCCC1(CCCC)CS(=O)(=O)c2ccc(N(C)CC)cc2C(c2cccc(OC)c2)C1O (centres unmarked) [Example 1150] | 30 | – |
| CCCCC1(CCCC)CS(=O)(=O)c2ccc(N(C)COCC)cc2C(c2ccccc2)C1O (centres unmarked) [Example 1152] | 36 | – |
| CCCCC1(CCCC)CS(=O)(=O)c2ccc(NC)cc2C(c2ccc(F)cc2)C1O (centres unmarked) [Example 1153] | 37 | – |
| CCCCC1(CCCC)CS(=O)(=O)c2ccc(OC)cc2C(c2ccncc2)C1O (centres unmarked) [Example 1158] | 60 | – |
| CCCCC1(CC)CS(=O)(=O)c2ccc(N(C)C)cc2C(c2ccccc2)C1O (centres unmarked) [Example 1159] | – | 60 |
| CCCCC1(CCCC)CS(=O)(=O)c2ccc(N(CC)CC)cc2C(c2ccc(F)cc2)C1O (centres unmarked) [Example 1160] | 62 | – |
| CCCCC1(CCCC)CS(=O)(=O)c2ccc(N(C)C)cc2C(c2cc(Cl)c(OC)c(Cl)c2)C1O (centres unmarked) [Example 1161] | 63 | – |
| CCCCC1(CCCC)CS(=O)(=O)c2ccc(N(C)C)cc2C(c2ccccc2)C1O (centres unmarked) [Example 1162] | 63 | – |
| CCCCC1(CCCC)CS(=O)(=O)c2ccc(OC)cc2C(c2cccc(N(C)C)c2)C1O (centres unmarked) [Example 1163] | 90 | – |
| CCCCC1(CCCC)CS(=O)(=O)c2ccc([N+](C)(C)C)cc2C(c2ccc(OC)c(F)c2)C1O (centres unmarked) [Example 1165] | 110 | – |
| C=CCOc1ccc(C2c3cc(N(C)C)ccc3S(=O)(=O)CC(CCCC)(CCCC)C2O)cc1Cl (centres unmarked) [Example 1167] | 120 | – |
| CCCCC1(CCCC)CS(=O)(=O)c2ccc([N+](C)(C)C)cc2C(c2ccc(O)cc2)C1O (centres unmarked) [Example 1168] | 120 | – |
| CCCCC1(CCCC)CS(=O)(=O)c2ccc(N(C)C)cc2C(c2ccc(OS(=O)(=O)C(F)(F)F)cc2)C1O (centres unmarked) [Example 1171] | 140 | – |
| CCCCC1(CCCC)CS(=O)(=O)c2ccc(OC)cc2C(c2ccncc2)C1O (centres unmarked) [Example 1172] | 140 | – |
| CCCCC1(CC)CS(=O)(=O)c2ccc(-c3ccccc3)cc2C(c2cccc(OC)c2)C1O (centres unmarked) [Example 1174] | 150 | – |
| CCCCC1(CC)CS(=O)(=O)c2ccc(S(C)(=O)=O)cc2C(c2cccc(OC)c2)C1O (centres unmarked) [Example 1175] | 170 | – |
| CCCCC1(CCCC)CS(=O)(=O)c2c(F)cccc2C(c2ccc(F)cc2)C1O (centres unmarked) [Example 1176] | 180 | – |

The remaining compounds from weak to strong by IC50 (read-out: Human TC IC50), led by results:

| IC50 (read-out: Human TC IC50) [nM] | SMILES | IC50 (Human TC IC50) [nM] |
| --- | --- | --- |
| 120 | CCCCC1(CCCC)CS(=O)(=O)c2cc(N(C)C)ccc2C(c2ccccc2)C1O (centres unmarked) [Example 1169] | – |
| 110 | CCCCC1(CCCC)CS(=O)(=O)c2ccc([N+](C)(C)C)cc2C(c2cccc(O)c2)C1O (centres unmarked) [Example 1166] | – |
| 93 | CCCCC1(CCCC)CS(=O)(=O)c2ccc(OC)cc2C(c2ccncc2)C1O (centres unmarked) [Example 1164] | – |
| 40 | CCCCC1(CCCC)CS(=O)(=O)c2c(cc(F)cc2N(C)C)C(c2ccc(F)cc2)C1O (centres unmarked) [Example 1157] | – |
| 39 | CCCCC1(CCCC)CS(=O)(=O)c2ccc(C)cc2C(c2ccc(F)cc2)C1O (centres unmarked) [Example 1155] | – |
| 39 | CCCCC1(CCCC)CS(=O)(=O)c2ccc(SC)cc2C(c2ccc(F)cc2)C1O (centres unmarked) [Example 1156] | – |
| 37 | CCCCC1(CCCC)CS(=O)(=O)c2c(OC)cccc2C(c2cccc(OC)c2)C1O (centres unmarked) [Example 1154] | – |
| 29 | CCCCC1(CCCC)CS(=O)(=O)c2c(cccc2N(C)C)C(c2ccc(OC)cc2)C1O (centres unmarked) [Example 1145] | – |
| 23 | CCCCC1(CCCC)CS(=O)(=O)c2ccc(NN(C)C)cc2C(c2cccc(OC)c2)C1O (centres unmarked) [Example 1140] | – |
| 22 | CCCCC1(CCCC)CS(=O)(=O)c2ccc(N(C)C)cc2C(c2cccc(OCCOCCOCC[n+]3ccc(C(C)(C)C)cc3)c2)C1O (centres unmarked) [Example 1138] | – |
| 22 | CCCCC1(CCCC)CS(=O)(=O)c2ccc(N(C)C)cc2C(c2ccc(F)c(F)c2)C1O (centres unmarked) [Example 1139] | – |
| 21 | CCCCC1(CCCC)CS(=O)(=O)c2ccc(N(C)C)cc2C(c2ccc(OC)c(OC)c2)C1O (centres unmarked) [Example 1135] | – |
| 21 | CCCCC1(CCCC)CS(=O)(=O)c2c(NN(C)C)cccc2C(c2ccc(F)cc2)C1O (centres unmarked) [Example 1137] | – |
| 20 | CCCCC1(CC)CS(=O)(=O)c2ccc(N(C)C)cc2C(c2cccc(OCCCCOC(C)=O)c2)C1O (centres unmarked) [Example 1134] | – |
| 18 | CCCCC1(CCCC)CS(=O)(=O)c2c(cccc2N(C)C)C(c2ccc(F)cc2)C1O (centres unmarked) [Example 1129] | – |
| 13 | CCCCC1(CC)CS(=O)(=O)c2ccc(N(C)C)cc2C(c2cccc(OCCOCCOCCI)c2)C1O (centres unmarked) [Example 1126] | – |
| 12 | CCCCC1(CCCC)CS(=O)(=O)c2ccc(N(C)C)cc2C(c2ccc(OC)c(Cl)c2)C1O (centres unmarked) [Example 1125] | – |
| 11 | CCCCC1(CCCC)CS(=O)(=O)c2ccc(N(C)C)cc2C(c2ccccc2)C1O (centres unmarked) [Example 1123] | – |
| 11 | CCCCC1(CCCC)CS(=O)(=O)c2ccc(N(C)C)cc2C(c2cccc(OC)c2)C1O (centres unmarked) [Example 1124] | – |
| 10 | CCCCC1(CCCC)CS(=O)(=O)c2ccc(N(C)C)cc2C(c2cccc(OCCOCCOCC[N+](CC)(CC)CC(OCC)OCC)c2)C1O (centres unmarked) [Example 1120] | – |
| 10 | CCCCC1(CCCC)CS(=O)(=O)c2ccc(N(C)C)cc2C(c2cccc(OCCOCCOCC[n+]3ccc(C4CC=CCC4)cc3)c2)C1O (centres unmarked) [Example 1121] | – |
| 9.8 | CCCCC1(CCCC)CS(=O)(=O)c2ccc(N(C)C)cc2C(c2ccc(F)cc2)C1O (centres unmarked) [Example 1115] | – |
| 8 | CCCCC1(CCCC)CS(=O)(=O)c2ccc(N(C)C)cc2C(c2ccc(OCCC[n+]3ccc(CCC(=O)O)cc3)c(F)c2)C1O (centres unmarked) [Example 1111] | – |
